Test results as given in EP4667466A1, “PROTAC DEGRADERS OF MLLT1 AND/OR MLLT3” (priority 2024, dated 2025).

What was measured:
[1] = target: T1, MLLT1 (Homo sapiens, UniProt Q03111); experiment: MLLT1 degradation assay (JESS automated chemiluminescent detection) in MV4-11 cells; assay type: cell-based; conditions: 24h, with respect to DMSO control
T1 construct: endogenous in cells; host or cells: MV4-11 (ATCC CRL-9591)
T1 sequence (Q03111 1-559): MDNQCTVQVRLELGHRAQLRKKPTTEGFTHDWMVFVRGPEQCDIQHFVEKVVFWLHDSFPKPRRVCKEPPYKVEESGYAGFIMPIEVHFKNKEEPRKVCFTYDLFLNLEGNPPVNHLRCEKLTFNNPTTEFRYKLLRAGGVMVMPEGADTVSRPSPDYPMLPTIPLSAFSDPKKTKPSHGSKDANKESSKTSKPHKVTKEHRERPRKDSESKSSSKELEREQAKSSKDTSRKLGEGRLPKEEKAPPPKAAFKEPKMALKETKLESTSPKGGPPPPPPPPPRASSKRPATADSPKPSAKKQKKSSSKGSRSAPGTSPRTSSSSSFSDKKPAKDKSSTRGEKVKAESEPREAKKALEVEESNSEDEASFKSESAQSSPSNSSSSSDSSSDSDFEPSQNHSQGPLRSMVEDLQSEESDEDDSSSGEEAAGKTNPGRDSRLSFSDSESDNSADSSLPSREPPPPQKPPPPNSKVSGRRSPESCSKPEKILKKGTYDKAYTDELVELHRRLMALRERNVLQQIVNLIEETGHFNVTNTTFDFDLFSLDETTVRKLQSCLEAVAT
In short: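 MV4-11 cells were treated with 1000, 100 or 10 nM compound (0.1% DMSO) for 24 h at 37 °C. Lysates (4 µg protein) were probed for MLLT1 and GAPDH by JESS capillary chemiluminescence. Degradation was calculated from band peak areas versus DMSO control and binned into categories A–D.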

[2] = test system: MV4-11 cells; experiment: MV4-11 cellular proliferation assay, Assay Format A (CellTiter-Glo, 120 hours); assay type: cell-based; conditions: Homo sapiens, Assay method A, read-out: MV4-11 antiproliferative IC50
Description: An MV4-11 proliferation assay was used to test the ability of compounds to reduce cell viability.
After 120 hours of treatment, cells were incubated for 10 min at RT with the CellTiter-Glo (CTG) reagent (G7571, Promega). Measurement of the luminescence signal was performed on a microplate reader (Ensight, PerkinElmer). CTG reagent measures the amount of ATP, which is directly proportional to the number of cells, to determine the number of viable cells in culture.
The data were analysed as follows: Data normalization, N(x) = (x−〈cr〉)/(〈sr〉−〈cr〉) × 100 [formula] where x is the measured raw signal value of a well, (cr) is the median of the measured signal values for the Central Reference (DMSO) wells on a plate, (sr) is the median of the measured signal values for the Scale Reference (reference compound) wells on a plate. Curve fitting, S0 + (Sinf −S0)/(1 + (((AC50)/(10^c)))^n) [formula] where the experimental set-up assumes the Hill parameters in certain ranges: S0 ~ Central Reference (CR) from normalization (= Bottom), Sinf ~ Scale Reference (SR) from normalization (= Top), nHill ~ 1, AC50 ~ within the measured concentration range.

SMILES | inhibition at 0.01 µM [1] [%] | inhibition at 0.1 µM [1] [%] | inhibition at 1 µM [1] [%] | IC50 [2] [nM]
Cc1nn(CCCCCCC#Cc2cccc3c2CN(C2CCC(=O)NC2=O)C3=O)c2cc(C(=O)Nc3cc4[nH]c([C@H]5CCCN5C)cc4cn3)ccc12 (stereo partly drawn) [Example 45, 1-(8-(2-(2,6-dioxopiperidin-3-yl)-1-oxoisoindolin-4-yl)oct-7-yn-1-yl)-3-methyl-N-(2-((R)-1-methylpyrrolidin-2-yl)-1H-pyrrolo[3,2-c]pyridin-6-yl)-1H-indazole-6-carboxamide] | ≥ 75 | ≥ 75 | ≥ 75 | 10
Cc1nn(CCCCC#Cc2cccc3c2CN(C2CCC(=O)NC2=O)C3=O)c2cc(C(=O)Nc3cc4[nH]c([C@H]5CCCN5C)cc4cn3)ccc12 (stereo partly drawn) [Example 46, 1-(6-(2-(2,6-dioxopiperidin-3-yl)-1-oxoisoindolin-4-yl)hex-5-yn-1-yl)-3-methyl-N-(2-((R)-1-methylpyrrolidin-2-yl)-1H-pyrrolo[3.2-c]pyridin-6-yl)-1H-indazole-6-carboxamide] | ≥ 75 | ≥ 75 | 50 to 75 | 7
